# Measurements taken from patent US20240165132A1, “METHODS AND MATERIALS FOR TREATING CANCER” (Mayo Foundation for Medical Education and Research, priority 2021, published 2024).
# Like-named read-outs stand apart in the source and are kept apart here.
# What was measured:
# Assay in all cases: Senolytic drug screen, CellTiter-Glo viability
# Type in all cases: cell-based, human
# GBM10 = GBM10 (P2); for IC50: Homo sapiens, read-out: IC50 of A1331852
# Description: (§1) Human patient-derived glioblastoma lines were utilized and were cultured according to established protocols. Tumor lines maintained as patient-derived xenografts (PDX) are from the National PDX resource. Such lines are designated as “GBM-6, 10, 12, 39, 76, 123, 164, or 196”. Implantation of patient-derived glioblastoma cells, serial passage of flank tumor xenografts, and short-term explant culturing were done as described elsewhere, with some lines maintained in serum-containing media, and some lines maintained in serum free media as noted in Table 2 (see, for example, Carlson et al., Current protocols in pharmacology. Chapter 14(14):Unit 14.16 (2011)). Some cell lines were maintained from time of harvest as in vitro cell lines rather than PDX lines, as described elsewhere (see, for example, Himes et al., Neuro-oncology. 22(7):967-978 (2020)). Such lines are designated as dBT114, dBT116, dBT120, dBT132 (dBT=differentiated brain tumor). Culture conditions were unchanged after induction of senescence.
# (§2) After plating, cells were maintained in 10 cm culture dishes for 2-4 days until >50% confluent. Cells were then treated with TMZ for 7 days or radiation (cesium gamma radiator) with varying doses. Most experiments were performed after use of 15 Gy to induce senescence. Radiation and TMZ each caused death of a variable percentage of cells in the ensuing days. “Senescent” tumor cells used for experiments are designated by those that survive following TMZ or radiation treatments. Except for radiation doses of 4 Gy or below, no visible proliferation occurred within 1 month after treatment with TMZ or radiation. For initial screening of senolytic drugs, cells were maintained for at least 20 days after radiation or TMZ prior to re-plating cells into black walled optical 96-well plates (5000 cells/well) for doing drug treatment.
# (§3) Human glioblastoma cells were exposed to 10, 15 or 20 Gy radiation as indicated above. All GBM lines tested (Table 2) yielded a subpopulation of surviving non-proliferative cells used for subsequent experiments, with the exception of GM43 which yielded insufficient surviving cells for senescence experiments. All senolytic drugs used in this study were dissolved in DMSO (Table 1). Control (0 nM) cells were treated with the same dose of DMSO as cells with the highest drug concentration. Unless specified otherwise, cells were maintained in drug-containing media for four days prior to evaluation of cell viability using ATP lite, CellTiter-Glo assay according to company protocol (Cat #G7570). For all experiments, luminescence values are normalized to the 0 nM control for that cell line and radiation dose. All dose response graphs are depicted standard error of the mean (SEM) of 3 technical replicates at each concentration. Representative data are shown for experiments performed in independent replicates.
# (§4) Multiple linear regressions were used to assess the relationship of drug dose and treatment (e.g. control, radiation, TMZ) with cell inhibition within each cell line. For these models, cell inhibition was the outcome and drug dose, treatment, and the drug dose by treatment interaction were the independent predictors. If the drug dose by treatment interaction was significant (p<0.05), pairwise comparisons were made at each drug dose between treatment groups using a two-sample t-test. Statistical analysis was performed in Microsoft Excel. IC50 was calculated by nonlinear regression (Curve fit) of dose-response inhibition curve by using GraphPad prism 8.4.2.
# GBM123 = GBM123 (P3); for IC50: Homo sapiens, read-out: IC50 of A1331852
# Description: as §1, §2, §3, §4
# GBM12 = GBM12 (P3); for IC50: Homo sapiens, read-out: IC50 of A1331852
# Description: as §1, §2, §3, §4
# GBM164 = GBM164 (P2); for IC50: Homo sapiens, read-out: IC50 of A1331852
# Description: as §1, §2, §3, §4
# GBM196 = GBM196 (P2); for IC50: Homo sapiens, read-out: IC50 of A1331852
# Description: as §1, §2, §3, §4
# GBM39 = conditions: for IC50: Homo sapiens
# Description: as §1, §2, §3, §4
# GBM6 = GBM6 (P4); for IC50: Homo sapiens, read-out: IC50 of A1331852
# Description: as §1, §2, §3, §4
# GBM76 = conditions: for IC50: Homo sapiens
# Description: as §1, §2, §3, §4
# dBT114 = dBT114 (P11); for IC50: Homo sapiens, read-out: IC50 of A1331852
# Description: as §1, §2, §3, §4
# dBT116 = dBT116 (P8); for IC50: Homo sapiens, read-out: IC50 of A1331852
# Description: as §1, §2, §3, §4
# dBT120 = dBT120 (P10); for IC50: Homo sapiens, read-out: IC50 of A1331852
# Description: as §1, §2, §3, §4
# dBT132 = dBT132 (P10); for IC50: Homo sapiens, read-out: IC50 of A1331852
# Description: as §1, §2, §3, §4
compound,measurement,setting,value
Cc1c(-c2ccc(N3CCc4cccc(C(=O)Nc5nc6ccccc6s5)c4C3)nc2C(=O)O)cnn1CC12CC3CC(CC(C3)C1)C2 [A1331852],Relative sensitivity (RS),GBM10; control vs 15Gy,16.19
same,IC50,GBM10; 15Gy radiated,2.47 µM
same,IC50,GBM10; non-radiated control,40 µM
same,Relative sensitivity (RS),GBM123; control vs 15Gy,2.457
same,IC50,GBM123; 15Gy radiated,9.36 µM
same,IC50,GBM123; non-radiated control,23 µM
same,Relative sensitivity (RS),GBM12; control vs 15Gy,11.31 ± 8.282
same,IC50,GBM12; 15Gy radiated,0.0229 ± 0.00761 µM
same,IC50,GBM12; non-radiated control,0.39 ± 0.07 µM
same,Relative sensitivity (RS),GBM164; control vs 15Gy,3.824
same,IC50,GBM164; 15Gy radiated,0.0777 µM
same,IC50,GBM164; non-radiated control,0.297 µM
same,Relative sensitivity (RS),GBM196; control vs 15Gy,10.72
same,IC50,GBM196; 15Gy radiated,2.55 µM
same,IC50,GBM196; non-radiated control,27.3 µM
same,Relative sensitivity (RS),"GBM39; GBM39 (P2-3), control vs 15Gy",513.8149 ± 711.64
same,Relative sensitivity (RS),"GBM39; GBM39 (P2-3), control vs TMZ",41.02 ± 2.182
same,Relative sensitivity (RS),"GBM39; GBM39 (P3), control vs 20Gy",16.66 ± 11.88
same,IC50 in radiated vs non-radiated cells,"GBM39; GBM39, 15 Gy vs 0 Gy, 21 days after radiation, 4 days drug, p<0.0001",lower IC50 in radiated cells
same,IC50,"GBM39; GBM39, read-out: IC50 of A1331852, 15Gy, GBM39 (P2-3), 15Gy radiated",0.0805 ± 0.093 µM
same,IC50,"GBM39; GBM39, read-out: IC50 of A1331852, 20Gy, GBM39 (P3), 20Gy radiated",0.071 ± 0.0103 µM
same,IC50,"GBM39; GBM39, read-out: IC50 of A1331852, Control, GBM39 (P2-3), control of 15Gy series",108 ± 152 µM
same,IC50,"GBM39; GBM39, read-out: IC50 of A1331852, Control, GBM39 (P2-3), control of TMZ series",1.72 ± 2.18 µM
same,IC50,"GBM39; GBM39, read-out: IC50 of A1331852, Control, GBM39 (P3), control of 20Gy series",1.3 ± 1.01 µM
same,Relative sensitivity (RS),GBM6; control vs 10Gy,26.58
same,Relative sensitivity (RS),GBM6; control vs 15Gy,26.58
same,Relative sensitivity (RS),GBM6; control vs 20Gy,16.72
same,IC50,GBM6; 10Gy radiated,0.532 µM
same,IC50,GBM6; 15Gy radiated,0.532 µM
same,IC50,GBM6; 20Gy radiated,0.845 µM
same,IC50,GBM6; non-radiated control,14.1 µM
same,Relative sensitivity (RS),"GBM76; GBM76 (P2), control vs 10Gy",31.77 ± 23.61
same,Relative sensitivity (RS),"GBM76; GBM76 (P2), control vs 15Gy",20.64 ± 5.633
same,Relative sensitivity (RS),"GBM76; GBM76 (P2), control vs 20Gy",34.24 ± 7.988
same,Relative sensitivity (RS),"GBM76; GBM76 (P3), control vs TMZ",28.21
same,IC50 in radiated vs non-radiated cells,"GBM76; GBM76, 10, 15, 20 Gy vs non-radiated control, 4 days drug",lower IC50 radiated cells
same,IC50,"GBM76; read-out: IC50 of A1331852, 10Gy, GBM76 (P2), 10Gy radiated",1 ± 0.367 µM
same,IC50,"GBM76; read-out: IC50 of A1331852, 15Gy, GBM76 (P2), 15Gy radiated",1.23 ± 0.416 µM
same,IC50,"GBM76; read-out: IC50 of A1331852, 20Gy, GBM76 (P2), 20Gy radiated",0.679 ± 0.0492 µM
same,IC50,"GBM76; read-out: IC50 of A1331852, Control, GBM76 (P2), non-radiated control",23.5 ± 6.76 µM
same,IC50,"GBM76; read-out: IC50 of A1331852, Control, GBM76 (P3), control of TMZ series",1.69 µM
same,IC50,"GBM76; read-out: IC50 of A1331852, TMZ, GBM76 (P3), TMZ treated",0.0597 µM
same,IC50,dBT114; 15Gy radiated,0.338 ± 0.0721 µM
same,IC50,dBT114; non-radiated control,6.32 ± 1.09 µM
same,Relative sensitivity (RS),dBT114; control vs 15Gy,20.28 ± 7.55
same,IC50,dBT116; 20Gy radiated,0.0635 µM
same,IC50,dBT116; non-radiated control,0.29 µM
same,Relative sensitivity (RS),dBT116; control vs 20Gy,4.566
same,IC50,dBT120; 15Gy radiated,0.458 µM
same,IC50,dBT120; non-radiated control,5.18 µM
same,Relative sensitivity (RS),dBT120; control vs 15Gy,11.31
same,IC50,"dBT132; 96 h, non-radiated control, 4 days drug",18.2 µM
same,IC50,dBT132; 10Gy radiated,4.31 µM
same,IC50,dBT132; 20Gy radiated,2.93 µM
same,Relative sensitivity (RS),dBT132; control vs 10Gy,4.214
same,Relative sensitivity (RS),dBT132; control vs 20Gy,6.192
